Experimental data published in PubChem BioAssay (NCI).
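Each compound was tested at five concentrations against cells in 96-well plates for 48 hours. The concentration for 50% growth inhibition is given as GI50. Definition used: TGI = concentration required for complete inhibition of growth.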

Tests used:
Experiment in all cases: NCI-60 cell line screen, 48 h
UACC-62 melanoma = tested on: UACC-62 melanoma
NCI-H23 lung = tested on: NCI-H23 lung
T-47D breast = tested on: T-47D breast
RXF 393 renal = tested on: RXF 393 renal
ACHN renal = tested on: ACHN renal
HCT-15 colon = tested on: HCT-15 colon
BT-549 breast = tested on: BT-549 breast
SR leukemia = tested on: SR leukemia
SW-620 colon = tested on: SW-620 colon
UO-31 renal = tested on: UO-31 renal
K-562 leukemia = tested on: K-562 leukemia
CAKI-1 renal = tested on: CAKI-1 renal
DU-145 prostate = tested on: DU-145 prostate
MDA-MB-231 breast = tested on: MDA-MB-231 breast
OVCAR-4 ovarian = tested on: OVCAR-4 ovarian
HOP-62 NSCLC = tested on: HOP-62 NSCLC
786-0 renal = tested on: 786-0 renal
MCF7 breast = tested on: MCF7 breast
SN12C renal = tested on: SN12C renal
SK-MEL-28 melanoma = tested on: SK-MEL-28 melanoma
SNB-75 CNS = tested on: SNB-75 CNS
KM12 colon = tested on: KM12 colon
A498 renal = tested on: A498 renal
HOP-92 NSCLC = tested on: HOP-92 NSCLC
HL-60(TB) leukemia = tested on: HL-60(TB) leukemia
HT29 colon = tested on: HT29 colon
SF-268 CNS = tested on: SF-268 CNS
COLO 205 colon = tested on: COLO 205 colon
U251 CNS = tested on: U251 CNS
RPMI-8226 leukemia = tested on: RPMI-8226 leukemia
NCI/ADR-RES ovarian = tested on: NCI/ADR-RES ovarian
OVCAR-3 ovarian = tested on: OVCAR-3 ovarian
A549 NSCLC = tested on: A549 NSCLC
SNB-19 CNS = tested on: SNB-19 CNS
NCI-H522 lung = tested on: NCI-H522 lung
UACC-257 melanoma = tested on: UACC-257 melanoma
IGROV1 ovarian = tested on: IGROV1 ovarian
MALME-3M melanoma = tested on: MALME-3M melanoma
NCI-H460 lung = tested on: NCI-H460 lung
SK-MEL-5 melanoma = tested on: SK-MEL-5 melanoma
EKVX NSCLC = tested on: EKVX NSCLC
HS 578T breast = tested on: HS 578T breast
OVCAR-8 ovarian = tested on: OVCAR-8 ovarian
SF-295 CNS = tested on: SF-295 CNS
SF-539 CNS = tested on: SF-539 CNS
M14 melanoma = tested on: M14 melanoma
MOLT-4 leukemia = tested on: MOLT-4 leukemia
HCC-2998 colon = tested on: HCC-2998 colon
CCRF-CEM leukemia = tested on: CCRF-CEM leukemia
SK-MEL-2 melanoma = tested on: SK-MEL-2 melanoma
OVCAR-5 ovarian = tested on: OVCAR-5 ovarian
HCT-116 colon = tested on: HCT-116 colon
MDA-MB-435 = tested on: MDA-MB-435
NCI-H226 lung = tested on: NCI-H226 lung
SK-OV-3 ovarian = tested on: SK-OV-3 ovarian
TK-10 renal = tested on: TK-10 renal
PC-3 prostate = tested on: PC-3 prostate
LOX IMVI melanoma = tested on: LOX IMVI melanoma

## COc1ccc(-c2cn[nH]c2-c2cc(OC)c(OC)c(OC)c2)cc1OCc1ccccc1
UACC-62 melanoma
  GI50: 3.02 µM
  TGI: 13.3 µM
NCI-H23 lung
  GI50: 4.21 µM
  TGI: 31.7 µM
T-47D breast
  GI50: 2.83 µM
  TGI: 19.1 µM
RXF 393 renal
  GI50: 1.95 µM
  TGI: 4.85 µM
ACHN renal
  GI50: 3.53 µM
  TGI: 35.2 µM
HCT-15 colon
  GI50: 3.07 µM
  TGI: 13.2 µM
BT-549 breast
  GI50: 5.33 µM
  TGI: 25.8 µM
SR leukemia
  GI50: 2.85 µM
  TGI: 9.38 µM
SW-620 colon
  GI50: 4.37 µM
  TGI: 30.2 µM
UO-31 renal
  GI50: 3.21 µM
  TGI: 15.2 µM
K-562 leukemia
  GI50: 3.18 µM
  TGI: > 100 µM
CAKI-1 renal
  GI50: 3.58 µM
  TGI: 47.1 µM
DU-145 prostate
  GI50: 3.94 µM
  TGI: 21.6 µM
MDA-MB-231 breast
  GI50: 3.25 µM
  TGI: 16.5 µM
OVCAR-4 ovarian
  GI50: 4.97 µM
  TGI: 59.1 µM
HOP-62 NSCLC
  GI50: 3.13 µM
  TGI: 14.1 µM
786-0 renal
  GI50: 2.96 µM
  TGI: 16.2 µM
MCF7 breast
  GI50: 3.65 µM
  TGI: 17.1 µM
SN12C renal
  GI50: 4.41 µM
  TGI: 19.4 µM
SK-MEL-28 melanoma
  GI50: 4.86 µM
  TGI: 18.3 µM
SNB-75 CNS
  GI50: 2.91 µM
  TGI: 9.23 µM
KM12 colon
  GI50: 3.3 µM
  TGI: 12 µM
A498 renal
  GI50: 2.08 µM
  TGI: 5.51 µM
HOP-92 NSCLC
  GI50: 2.01 µM
  TGI: 15.3 µM
HL-60(TB) leukemia
  GI50: 2.36 µM
  TGI: 5.44 µM
HT29 colon
  GI50: 3.61 µM
  TGI: 15.8 µM
SF-268 CNS
  GI50: 4.6 µM
  TGI: 27 µM
COLO 205 colon
  GI50: 4.58 µM
  TGI: 18.1 µM
U251 CNS
  GI50: 3.24 µM
  TGI: 11.8 µM
RPMI-8226 leukemia
  GI50: 2.22 µM
  TGI: 9.28 µM
NCI/ADR-RES ovarian
  GI50: 2.52 µM
  TGI: 7.43 µM
OVCAR-3 ovarian
  GI50: 2.47 µM
  TGI: 5.44 µM
A549 NSCLC
  GI50: 3.56 µM
  TGI: 51.6 µM
SNB-19 CNS
  GI50: 4.23 µM
  TGI: 24.7 µM
NCI-H522 lung
  GI50: 2 µM
  TGI: 9.31 µM
UACC-257 melanoma
  GI50: 6.38 µM
  TGI: 24.3 µM
IGROV1 ovarian
  GI50: 3.52 µM
  TGI: 18.7 µM
MALME-3M melanoma
  GI50: 4.28 µM
  TGI: 26.2 µM
NCI-H460 lung
  GI50: 3.35 µM
  TGI: 12.2 µM
SK-MEL-5 melanoma
  GI50: 2.29 µM
  TGI: 5.89 µM
EKVX NSCLC
  GI50: 4.48 µM
  TGI: 47.2 µM
HS 578T breast
  GI50: 2.23 µM
  TGI: 8.86 µM
OVCAR-8 ovarian
  GI50: 3.72 µM
  TGI: 30.3 µM
SF-295 CNS
  GI50: 3.01 µM
  TGI: 9.02 µM
SF-539 CNS
  GI50: 2.19 µM
  TGI: 5.23 µM
M14 melanoma
  GI50: 2.63 µM
  TGI: 8.77 µM
MOLT-4 leukemia
  GI50: 3.1 µM
  TGI: 11 µM
HCC-2998 colon
  GI50: 3.45 µM
  TGI: 12.1 µM
CCRF-CEM leukemia
  GI50: 3.49 µM
  TGI: 26.5 µM
SK-MEL-2 melanoma
  GI50: 4.27 µM
  TGI: 16.7 µM
OVCAR-5 ovarian
  GI50: 3.76 µM
  TGI: 28 µM
HCT-116 colon
  GI50: 3.13 µM
  TGI: 11.2 µM
MDA-MB-435
  GI50: 1.95 µM
  TGI: 3.91 µM
NCI-H226 lung
  GI50: 3.57 µM
  TGI: 20.5 µM
SK-OV-3 ovarian
  GI50: 3.74 µM
  TGI: 23.8 µM
TK-10 renal
  GI50: 4.53 µM
  TGI: 49 µM
PC-3 prostate
  GI50: 3.24 µM
  TGI: 19.1 µM
LOX IMVI melanoma
  GI50: 3.44 µM
  TGI: 13.6 µM
